{"source": "patent US20080187508A1", "about": "“Treatment of Golmerular Basement Membrane Disease Involving Matrix Metalloproteinase-12” (BOYS TOWN NATIONAL RESEARCH HOSPITAL, priority 2004, published 2008)", "key": {"[1]": {"test_system": "Alport mice", "test": "immunofluorescence of kidney cryosections (fibronectin, collagen IV α1/α2) of treated Alport mice", "format": "in vivo, mouse", "details": "Alport mice treated from 4 to 7 weeks of age; MMI-270 50 μg/g I.P., BAY 129566 4 mg once daily oral gavage; fibronectin and collagen IV α1/α2 immunostaining", "procedure": "The Alport mouse model has been described (Cosgrove et al. (1996) Genes Dev. 10, 2981-2992). The control mice used were normal for both collagen α3(IV) alleles, and are a product of double heterozygote crosses for the Alport mutation. The use of animals in this study was performed in accordance with an approved institutional IACUC protocol. Extreme care was taken to minimize pain and discomfort suffered by the mice. MMP inhibitors were administered between 4 and 7 weeks of age. All drugs were freshly prepared prior to administration. BAY 129566 was emulsified in suspension with 0.5% carboxymethyl cellulose and 4 mg given once a day by oral gavage. MMI-270 was solubilized in 0.9% saline and administered by I.P. injection (50 μg/g body weight) once a day.\nCryosections ([…]) of kidneys from 7-week-old normal and Alport mice were air dried, fixed by immersion in ice cold acetone, and subjected to immunohistochemical staining analysis using antibodies specific for MMP-3 (rabbit polyclonal anti-human MMP-3, a gift from Dr. Z. Gunza-Smith, Miami, Fla., used at 1:200 dilution), MMP-12 (rabbit polyclonal antibody against mouse MMP-12, kindly provided by Yoshikatsu Kaneko, used at 1:100 dilution), type IV collagen α1/2 chains (rabbit polyclonal against mouse type IV collagen, Biodesign, Inc., Saco, Me., used at 1:200 dilution), fibronectin (rabbit polyclonal against human plasma fibronectin, Sigma Chemical Co., St. Louis, Mo., used at 1:200). Anti-CD31 antibodies were directly conjugated to Alexa 568 (Molecular Probes, Eugene Oreg.) and purchased from Immunotech (Marseille, France). […] Images were collected using a Cytovision Ultra Image analysis system interfaced with an Olympus BH-2 fluorescence microscope.\nTo assess the effect of these two compounds on Alport renal disease progression, Alport mice were administered either MMI 270 or BAY 129566 from 4 to 7 weeks of age. […] Cryosections were analyzed by immunofluorescence microscopy to assess for the degree of glomerular and tubulointerstitial damage using antibodies specific for collagen IV α1 and α2 chains, and fibronectin."}, "[2]": {"test_system": "Alport mice", "test": "transmission electron microscopy of glomerular basement membrane of treated Alport mice", "format": "in vivo, mouse", "procedure": "The Alport mouse model has been described (Cosgrove et al. (1996) Genes Dev. 10, 2981-2992). The control mice used were normal for both collagen α3(IV) alleles, and are a product of double heterozygote crosses for the Alport mutation. The use of animals in this study was performed in accordance with an approved institutional IACUC protocol. Extreme care was taken to minimize pain and discomfort suffered by the mice. MMP inhibitors were administered between 4 and 7 weeks of age. All drugs were freshly prepared prior to administration. BAY 129566 was emulsified in suspension with 0.5% carboxymethyl cellulose and 4 mg given once a day by oral gavage. MMI-270 was solubilized in 0.9% saline and administered by I.P. injection (50 μg/g body weight) once a day. Transmission electron microscopy was performed as previously described (Cosgrove et al., 1996, Genes Dev. 10, 2981-2992). Ultrastructural localization studies of type IV collagen were performed essentially as previously described (Bhattacharya et al., 2002). Kidneys from 7-week-old control and Alport mice were fixed by heart perfusion with 2% paraformaldehyde in PBS, and post-fixed in this same solution overnight. Ultrathin (70 nm) sections were reacted for 4 hours at room temperature with goat anti-collagen IV antibodies (Southern Biotechnology, Birmingham, Ala.). After six 10 minute washes in PBS, specimen were reacted for 2 hours at room temperature with 10 nanometers (nm) gold-conjugated anti-rabbit antibodies (Vector Laboratories, Burlingame, Calif.). Grids were washed as before, air-dried, counterstained with uranyl acetate, and examined using transmission electron microscopy. Propagermanium (3-oxygemylpropinic acid polymer, Sanwa Kagaku Kenkyusho Co., Nagoya, Japan) was administered orally (10 milligrams per kilogram (mg/kg) in 1% gelatin) by gavage once daily starting at 5 weeks of age, and kidneys harvested at 7 weeks of age. Three animals per group, Alport mice and control litter mates, gavaged with drug or vehicle only, were analyzed. […] Proteolytic degradation of the GBM in Alport syndrome might underlie the progressive irregular GBM damage and podocyte foot process effacement. Type IV collagen from Alport kidneys is more susceptible to proteolytic degradation in vitro than type IV collagen from healthy kidneys (Kalluri et al. (1997) J. Clin. Invest. 99, 2470-2478, presumably owing to the reduced number of interchain disulfide crosslinks (Gunwar et al. (1998) J. Biol. Chem. 273, 8767-8775)."}, "[3]": {"target": "T1, MMP-2 (Homo sapiens, UniProt P08253)", "T1 sequence (P08253 110-660)": "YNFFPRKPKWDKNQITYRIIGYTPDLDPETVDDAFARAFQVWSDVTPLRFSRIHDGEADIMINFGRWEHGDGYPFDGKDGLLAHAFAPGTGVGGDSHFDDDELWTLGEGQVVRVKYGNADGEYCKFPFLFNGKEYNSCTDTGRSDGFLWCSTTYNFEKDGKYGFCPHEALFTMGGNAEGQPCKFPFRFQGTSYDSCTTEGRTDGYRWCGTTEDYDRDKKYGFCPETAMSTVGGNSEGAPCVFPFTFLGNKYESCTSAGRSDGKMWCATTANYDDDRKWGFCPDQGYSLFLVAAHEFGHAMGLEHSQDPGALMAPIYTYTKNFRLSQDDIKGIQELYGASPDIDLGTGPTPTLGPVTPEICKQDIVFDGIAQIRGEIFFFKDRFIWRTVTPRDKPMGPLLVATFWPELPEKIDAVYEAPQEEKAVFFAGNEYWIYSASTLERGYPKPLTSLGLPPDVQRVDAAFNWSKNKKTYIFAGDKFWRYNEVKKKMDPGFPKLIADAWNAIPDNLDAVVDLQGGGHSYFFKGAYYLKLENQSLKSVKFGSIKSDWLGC", "details": "listed as BAY 129566; cited from earlier work"}, "[4]": {"target": "MMP-3 (Homo sapiens, UniProt P08254)", "sequence (P08254 100-477, species assumed)": "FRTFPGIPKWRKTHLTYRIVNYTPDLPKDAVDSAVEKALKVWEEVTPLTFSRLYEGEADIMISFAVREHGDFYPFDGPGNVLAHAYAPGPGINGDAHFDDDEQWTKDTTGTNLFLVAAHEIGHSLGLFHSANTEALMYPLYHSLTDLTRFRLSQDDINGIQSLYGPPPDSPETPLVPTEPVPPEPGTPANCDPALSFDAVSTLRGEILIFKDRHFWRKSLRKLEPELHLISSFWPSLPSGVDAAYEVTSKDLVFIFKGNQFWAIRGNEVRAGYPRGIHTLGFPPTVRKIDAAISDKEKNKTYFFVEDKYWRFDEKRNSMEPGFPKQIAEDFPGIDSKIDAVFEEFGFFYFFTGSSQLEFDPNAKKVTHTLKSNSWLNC", "details": "listed as BAY 129566; cited from earlier work"}, "[5]": {"target": "MMP-9 (Homo sapiens, UniProt P14780)", "sequence (P14780 94-707, species assumed)": "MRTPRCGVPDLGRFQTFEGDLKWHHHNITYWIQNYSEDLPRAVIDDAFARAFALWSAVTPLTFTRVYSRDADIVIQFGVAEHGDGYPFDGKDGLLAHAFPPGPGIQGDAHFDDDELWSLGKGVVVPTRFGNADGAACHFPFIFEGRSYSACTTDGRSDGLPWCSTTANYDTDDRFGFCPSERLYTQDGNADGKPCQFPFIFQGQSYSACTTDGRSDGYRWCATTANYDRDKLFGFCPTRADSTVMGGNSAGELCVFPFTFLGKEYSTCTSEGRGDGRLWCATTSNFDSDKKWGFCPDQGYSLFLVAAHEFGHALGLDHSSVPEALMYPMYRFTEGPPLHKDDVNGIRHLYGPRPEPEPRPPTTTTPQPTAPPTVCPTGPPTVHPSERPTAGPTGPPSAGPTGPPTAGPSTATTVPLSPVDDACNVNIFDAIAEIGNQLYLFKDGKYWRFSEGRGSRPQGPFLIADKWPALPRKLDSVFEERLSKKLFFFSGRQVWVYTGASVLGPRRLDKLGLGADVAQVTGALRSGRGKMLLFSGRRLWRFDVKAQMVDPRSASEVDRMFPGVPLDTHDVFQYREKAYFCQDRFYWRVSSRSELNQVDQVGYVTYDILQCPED", "details": "listed as BAY 129566; cited from earlier work"}, "[6]": {"target": "MMP-12 (Homo sapiens, UniProt P39900)", "sequence (P39900 106-470, species assumed)": "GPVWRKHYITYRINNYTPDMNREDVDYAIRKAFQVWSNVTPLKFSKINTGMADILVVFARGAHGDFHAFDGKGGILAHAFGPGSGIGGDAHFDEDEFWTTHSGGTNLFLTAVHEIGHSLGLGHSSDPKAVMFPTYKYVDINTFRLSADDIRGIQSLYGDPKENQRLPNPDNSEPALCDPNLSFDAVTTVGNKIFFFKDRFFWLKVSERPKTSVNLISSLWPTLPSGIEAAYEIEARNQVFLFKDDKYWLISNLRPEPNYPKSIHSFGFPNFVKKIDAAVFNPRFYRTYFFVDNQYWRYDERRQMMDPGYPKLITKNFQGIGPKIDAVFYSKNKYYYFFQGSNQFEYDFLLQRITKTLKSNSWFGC", "details": "listed as BAY-12-9566; cited from earlier work"}, "[7]": {"target": "MMP-14 (Homo sapiens, UniProt P50281)", "details": "listed as BAY 129566; cited from earlier work"}, "[8]": {"test_system": "MMP-12 mRNA", "test": "real time PCR of glomerular RNA of propagermanium-treated Alport mice: MMP-12", "format": "in vivo, mouse", "details": "propagermanium 10 mg/kg oral gavage once daily from 5 to 7 weeks of age, 50-fold in vehicle-treated", "procedure": "(§1) Isolation of mouse glomeruli was performed as described by Takemoto et al., (Am. J. Pathol. (2002)161, 799-805). The procedure involves cardiac perfusion with deactivated […] Dynabeads (Dynal Biotech, Oslo, Sweden), followed by collagenase digestion and glomerular isolation using a magnet.\n(§2) Total RNA samples were treated with RNase-free DNase I (Gibco BRL, USA) at 37° C. for 1 hour (hr) in order to remove any contaminating genomic DNA before reverse transcription (RT). Total RNA was reverse-transcribed by using Superscript II (GIBCO BRL) with oligo dt primers. To ensure that the quantitation of MMP transcripts in serial samples was not affected by differences in the amount of RNA added, integrity of RNA, or sample to sample differences in levels of RT-PCR inhibition, an internal control reaction targeting the GAPDH gene was run in multiplex with each reaction, and used to normalize results for MMP transcripts. […] The data were analyzed using comparative threshold cycle (CT) method. The mRNA quantity for the control is expressed as 1× sample and all other quantities from Alport samples are expressed as fold difference relative to the controls. No measurable fluorescence signal was detected in repeated RT-PCR runs in which the reverse transcriptase was omitted from the reaction mixture. […]"}, "[9]": {"test_system": "MMP-3 mRNA", "test": "real time PCR of glomerular RNA of propagermanium-treated Alport mice: MMP-3", "format": "in vivo, mouse", "details": "propagermanium 10 mg/kg oral gavage once daily from 5 to 7 weeks of age", "procedure": "as §1, §2"}, "[10]": {"test_system": "MMP-9 mRNA", "test": "real time PCR of glomerular RNA of propagermanium-treated Alport mice: MMP-9", "format": "in vivo, mouse", "details": "propagermanium 10 mg/kg oral gavage once daily from 5 to 7 weeks of age", "procedure": "as §1, §2"}, "[11]": {"test_system": "Alport mice", "details": "cited from earlier work"}}, "note": "Entries after “also recorded” stand apart in the source; their conditions may differ.", "data": [{"compound": "O=C(C[C@H](CSc1ccccc1)C(=O)O)c1ccc(-c2ccc(Cl)cc2)cc1", "note": "[BAY 12-9566]", "values": [{"measurement": "glomerular and tubulointerstitial (renal) disease progression", "setting": "[1]", "value": "same degree of renal pathology as untreated Alport mice; also recorded: no obvious effect; also recorded: did not significantly affect; also recorded: no improvement"}, {"measurement": "glomerular basement membrane architecture", "setting": "[2]; Alport mice treated with MMP inhibitor from 4 to 7 weeks of age, electron microscopy", "value": "no effect"}, {"measurement": "MMP inhibitory effect, MMP-2", "setting": "[3]", "value": "inhibits"}, {"measurement": "MMP inhibitory effect, MMP-3", "setting": "[4]", "value": "inhibits"}, {"measurement": "MMP inhibitory effect, MMP-9", "setting": "[5]", "value": "inhibits"}, {"measurement": "MMP inhibitory effect, MMP-12", "setting": "[6]", "value": "does not"}, {"measurement": "MMP inhibitory effect, MMP-14", "setting": "[7]", "value": "inhibits"}]}, {"compound": "3-oxygermylpropionic acid [propagermanium]", "values": [{"measurement": "glomerular basement membrane architecture", "setting": "[2]; Alport mice, propagermanium 10 mg/kg oral gavage once daily from 5 to 7 weeks of age, transmission electron microscopy", "value": "restores normal GBM architecture"}, {"measurement": "MMP-12 mRNA induction in glomeruli relative to normal controls", "setting": "[8]", "value": 6, "unit": "fold"}, {"measurement": "induction of MMP-3 mRNA in glomeruli", "setting": "[9]", "value": "unaffected"}, {"measurement": "induction of MMP-9 mRNA in glomeruli", "setting": "[10]", "value": "unaffected"}]}, {"compound": "CCOC(=O)[C@H](CCc1ccccc1)N[C@@H](C)C(=O)N1[C@H](C(=O)O)C[C@@H]2CCC[C@@H]21", "note": "[Ramipril]", "values": [{"measurement": "lifespan", "setting": "[11]", "value": "doubles"}]}]}
